Measured values as given in patent US20240174618A1, “SUBSTITUTED (2-HETEROARYLOXYPHENYL)SULFONATES, SALTS THEREOF AND THEIR USE AS HERBICIDAL AGENTS” (Bayer Aktiengesellschaft, priority 2021, published 2024).

Key:
Assay type in all cases: in vivo
[1] = test system: Poa annua (POAAN); assay: A. Herbicidal pre-emergence efficacy, POAAN
Outline: (§1)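 Applied before emergence onto covering soil at rates of 1280 g/ha or less, using 600 L/ha spray water with 0.5% additive. Scoring: visual % efficacy after ~3 weeks, greenhouse.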

[2] = test system: Kochia scoparia (KCHSC); assay: C. Herbicidal pre-emergence efficacy, KCHSC
Outline: (§2)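 Pre-emergence test: formulated compounds sprayed as aqueous suspension or emulsion with 0.5% additive at 600 l/ha onto soil covering sown seeds, at rates corresponding to 320 g/ha or less. After about 3 weeks in greenhouse, efficacy scored visually as percent versus untreated controls (100% = plants dead).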

[3] = test system: Abutilon theophrasti (ABUTH); assay: E. Herbicidal post-emergence efficacy, ABUTH
Outline: (§3)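 Visual scoring against untreated plants was done roughly 3 weeks after spraying (0% = no effect, 100% = plants dead). Spray application at 320 g/ha or lower, 600 l/ha water with 0.5% additive, was made onto green parts of one-leaf-stage greenhouse plants grown 2-3 weeks in sandy loam.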

[4] = test system: Digitaria sanguinalis (DIGSA); assay: B. Herbicidal post-emergence efficacy, DIGSA; conditions: rated visually after about 3 weeks
Outline: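 Weeds grown in sandy loam in greenhouse and sprayed at the one-leaf stage, 2–3 weeks after sowing, with WP or EC formulations plus 0.5% additive at 600 L/ha water. Injury rated visually versus untreated controls after about 3 weeks (100% = dead, 0% = like control); rates up to 1280 g/ha.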

[5] = test system: Setaria viridis (SETVI); assay: E. Herbicidal post-emergence efficacy, SETVI
Outline: as §3

[6] = test system: Stellaria media (STEME); assay: A. Herbicidal pre-emergence efficacy, STEME
Outline: as §1

[7] = test system: Veronica persica (VERPE); assay: C. Herbicidal pre-emergence efficacy, VERPE; conditions: scored after about 3 weeks
Outline: as §2

[8] = test system: Echinochloa crus-galli (ECHCG); assay: E. Herbicidal post-emergence efficacy, ECHCG; conditions: application rate 320 g/ha
Outline: as §3

[9] = test system: Viola tricolor (VIOTR); assay: E. Herbicidal post-emergence efficacy, VIOTR
Outline: as §3

| Structure (SMILES) | Pre-emergence efficacy against POAAN ([1]; dosage 320 g/ha) | Pre-emergence efficacy against POAAN ([1]; dosage 1280 g/ha) | Pre-emergence efficacy against KCHSC in % ([2]; application rate 320 g/ha) | Post-emergence efficacy against ABUTH in % ([3]; application rate 320 g/ha) | Post-emergence efficacy against DIGSA in % ([4]; 320 g/ha) | Post-emergence efficacy against DIGSA in % ([4]; 1280 g/ha) | Post-emergence efficacy against SETVI in % ([5]; application rate 320 g/ha) | Pre-emergence efficacy against STEME ([6]; dosage 320 g/ha) | Pre-emergence efficacy against STEME ([6]; dosage 1280 g/ha) | Pre-emergence efficacy against VERPE ([7]; 80 g/ha) | Pre-emergence efficacy against VERPE ([7]; 320 g/ha) | Post-emergence efficacy against ECHCG in % [8] | Post-emergence efficacy against VIOTR in % ([9]; application rate 80 g/ha) | Post-emergence efficacy against VIOTR in % ([9]; application rate 320 g/ha) | Pre-emergence efficacy against KCHSC in % ([2]; application rate 80 g/ha) | Post-emergence efficacy against ABUTH in % ([3]; application rate 80 g/ha) | Post-emergence efficacy against SETVI in % ([5]; application rate 80 g/ha) |
| --- | --- | --- | --- | --- | --- | --- | --- | --- | --- | --- | --- | --- | --- | --- | --- | --- | --- |
| Cc1cccc(Oc2ncc(Cl)cn2)c1OS(=O)(=O)CC1CC(F)(F)C1 [Example I-74] | 100% | 100% | 90% | 90% | 90% | 100% | 90% | 90% | 100% | 80% | 100% | 100% | 100% | 100% | – | – | – |
| O=S(=O)(CCCC(F)(F)F)Oc1c(Cl)cccc1Oc1ncc(Br)cn1 [Example I-34] | 90% | 90% | 100% | 80% | – | 100% | 90% | 90% | 90% | 80% | 100% | 90% | 100% | 100% | 90% | 80% | 90% |
